Among the test systems are PC-3 prostate; HT29 colon; CCRF-CEM leukemia; UACC-257 melanoma; SR leukemia; K-562 leukemia; SK-MEL-28 melanoma; MOLT-4 leukemia; SF-295 CNS; SF-268 CNS.
Assay in all cases: inhibition of tumour cell growth, NCI panel, 48 h

For 8 molecules, GI50 and TGI results are on record in PubChem BioAssay (NCI).

Structures are written as SMILES.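 Where inhibition never reached the appropriate level, the endpoint shown equals the highest concentration tested. Otherwise, values were interpolated linearly from a five-concentration, 48-hour dose response in 96-well plates. Here, GI50 denotes the concentration required for 50% inhibition of growth. At the TGI there is no net growth.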

For the molecule `C=CCN1C(=O)/C(=c2\sc3n(c2=O)C2C(NN=3)N(CC)C(=O)N2CC)c2ccccc21` (configuration not stated), the GI50 in the assay on PC-3 prostate is 0.548 µM; in the assay on HT29 colon, 0.39 µM; in the assay on CCRF-CEM leukemia it was 0.469 µM; in the assay with SR leukemia it was 0.38 µM; in the assay on K-562 leukemia, 0.414 µM; in the assay on SK-MEL-28 melanoma, 5.36 µM. For the same molecule, the GI50 with MOLT-4 leukemia was 1.71 µM; in the assay with SF-295 CNS, 0.455 µM; in the assay on SF-268 CNS it was 1.26 µM. Besides, the TGI in the assay with PC-3 prostate, with CCRF-CEM leukemia, in the assay on UACC-257 melanoma, with SR leukemia, in the assay on K-562 leukemia and in the assay on SK-MEL-28 melanoma was greater than 100 µM each time. The TGI with MOLT-4 leukemia was greater than 100 µM; with SF-295 CNS, greater than 33.7 µM; with SF-268 CNS, greater than 100 µM.

For `COc1cccc(Nc2nc(NNC(=O)Cc3ccccc3)nc(NNC(=O)c3ccncc3)n2)c1`, the TGI in the assay with PC-3 prostate, in the assay on HT29 colon, with CCRF-CEM leukemia, in the assay with UACC-257 melanoma, in the assay on SR leukemia and in the assay with K-562 leukemia was greater than 100 µM throughout. Moreover, the TGI in the assay on SK-MEL-28 melanoma, with MOLT-4 leukemia, with SF-295 CNS and with SF-268 CNS was greater than 100 µM each time. Besides, the GI50 with CCRF-CEM leukemia, with UACC-257 melanoma, in the assay on K-562 leukemia and with SF-268 CNS was greater than 100 µM throughout.

As to `CC(C)=CC/C=C(/C)[C@H]1CC[C@]2(C)[C@@H]1CC[C@@H]1[C@@]3(C)CCC(=O)NC(C)(C)[C@@H]3CC[C@]12C`, the GI50 in the assay with PC-3 prostate was 7.49 µM; in the assay on HT29 colon, 20.4 µM; in the assay with CCRF-CEM leukemia, 12.4 µM; in the assay on UACC-257 melanoma, 31.7 µM; in the assay on SR leukemia it was 17.4 µM; in the assay with K-562 leukemia it was 17.3 µM. The GI50 in the assay on SK-MEL-28 melanoma was 16.7 µM; with MOLT-4 leukemia, 15.4 µM; in the assay with SF-295 CNS it was 18.7 µM; in the assay on SF-268 CNS it was 17.2 µM. For the same molecule, the TGI is 23.9 µM in the assay with PC-3 prostate; 72.3 µM in the assay with HT29 colon; 47.9 µM with CCRF-CEM leukemia; greater than 100 µM in the assay with UACC-257 melanoma; 51.8 µM in the assay on SR leukemia; 88.2 µM with K-562 leukemia. Also, the TGI in the assay on SK-MEL-28 melanoma was determined as 31.6 µM; in the assay with MOLT-4 leukemia, 49.6 µM; in the assay with SF-295 CNS, 36.6 µM; in the assay with SF-268 CNS, 34.6 µM.

Consider `CCCc1cc(=O)oc2c(C(=O)CC(C)C)c(O)c(CC=C(C)C)c(O)c12`, for which the GI50 in the assay with PC-3 prostate was 6.22 µM; with HT29 colon, 15.1 µM; with CCRF-CEM leukemia, 4.97 µM; with UACC-257 melanoma, 5.89 µM; in the assay on SR leukemia, 16.2 µM; in the assay with K-562 leukemia, 4.13 µM. The GI50 with SK-MEL-28 melanoma is 6.21 µM; with MOLT-4 leukemia, 11.7 µM; in the assay on SF-295 CNS it was 7.81 µM; with SF-268 CNS, 11.2 µM. Besides, the TGI in the assay on PC-3 prostate is 34.3 µM; with HT29 colon, greater than 50 µM; in the assay with CCRF-CEM leukemia it was greater than 50 µM; with UACC-257 melanoma, 29.9 µM; in the assay with SR leukemia it was greater than 50 µM; in the assay on K-562 leukemia, greater than 50 µM. For the same molecule, the TGI in the assay on SK-MEL-28 melanoma was greater than 50 µM; in the assay with MOLT-4 leukemia, greater than 50 µM; with SF-295 CNS, 31.3 µM; in the assay with SF-268 CNS it was greater than 50 µM.

On to `O=C(N[C@H](c1ccc(Cl)c(Cl)c1)C1CNC1)c1ccc2cnccc2c1`, for which the GI50 in the assay on PC-3 prostate was 3.48 µM; with HT29 colon, 3.24 µM; with CCRF-CEM leukemia it was 2.74 µM; with UACC-257 melanoma, 5.18 µM; in the assay on SR leukemia, 2.11 µM; in the assay with K-562 leukemia, 3.37 µM. Besides, the GI50 in the assay on SK-MEL-28 melanoma is 5.5 µM; in the assay on MOLT-4 leukemia, 1.41 µM; in the assay on SF-295 CNS, 3.04 µM; in the assay on SF-268 CNS, 2.56 µM. In addition, the TGI in the assay with PC-3 prostate was 16.1 µM; in the assay on HT29 colon, 14.4 µM; with CCRF-CEM leukemia, 13.6 µM; in the assay on UACC-257 melanoma, 18.6 µM; with SR leukemia it was 10.8 µM; in the assay with K-562 leukemia, 14 µM. Also, the TGI was determined as 18.6 µM with SK-MEL-28 melanoma, 5.67 µM in the assay on MOLT-4 leukemia, 14.5 µM with SF-295 CNS and 15.6 µM in the assay on SF-268 CNS.

For `CCOP(=O)(CCP(=O)(OCC)OCC)OCC.C[CH2][Sn]([Cl])([Cl])[CH2]C`, the GI50 in the assay on PC-3 prostate was greater than 100 µM; in the assay with HT29 colon it was 62.7 µM; with CCRF-CEM leukemia, 15.5 µM; in the assay on UACC-257 melanoma, 28.5 µM; in the assay with SR leukemia it was 38.2 µM; with K-562 leukemia it was 27.4 µM. Besides, the GI50 in the assay on SK-MEL-28 melanoma was 35.6 µM; with MOLT-4 leukemia it was 39.9 µM; in the assay on SF-295 CNS it was greater than 81.8 µM; in the assay on SF-268 CNS it was 38.8 µM. Moreover, the TGI with PC-3 prostate was greater than 100 µM; in the assay with HT29 colon, greater than 93.6 µM; in the assay on CCRF-CEM leukemia it was 50.5 µM; in the assay on UACC-257 melanoma, 59.3 µM; in the assay on SR leukemia, greater than 100 µM; in the assay on K-562 leukemia, greater than 100 µM. For the same molecule, the TGI was greater than 61.9 µM in the assay on SK-MEL-28 melanoma, greater than 100 µM in the assay with MOLT-4 leukemia, greater than 100 µM in the assay with SF-295 CNS and greater than 66.8 µM with SF-268 CNS.

`C[N+](C)(C)CCOP(=O)(O)OP(=O)([O-])OCC1CCC(n2ccc(N)nc2=O)O1` (configuration not stated): the TGI with PC-3 prostate, in the assay with HT29 colon, in the assay with CCRF-CEM leukemia, in the assay with UACC-257 melanoma, in the assay with SR leukemia and with K-562 leukemia was greater than 100 µM throughout. In addition, the TGI in the assay with SK-MEL-28 melanoma, with MOLT-4 leukemia, with SF-295 CNS and with SF-268 CNS was greater than 100 µM in each case.

On to `COc1cc(CNC(=O)/C=C/C=C/c2ccc3c(c2)OCO3)ccc1OCc1cn(-c2ccc(Cl)c(Cl)c2)nn1`, for which the GI50 in the assay on PC-3 prostate was 1.48 µM; in the assay with HT29 colon, 2.49 µM; in the assay on CCRF-CEM leukemia, 1.44 µM; with UACC-257 melanoma, 1.8 µM; in the assay with SR leukemia it was 2.8 µM; with K-562 leukemia, 0.509 µM. Besides, the GI50 in the assay with SK-MEL-28 melanoma is 1.67 µM; with MOLT-4 leukemia it was 0.738 µM; in the assay on SF-295 CNS, 1.85 µM; in the assay with SF-268 CNS, 2.3 µM. Also, the TGI in the assay with PC-3 prostate is 3.47 µM; in the assay with HT29 colon, 8.18 µM; in the assay with CCRF-CEM leukemia it was 12.6 µM; in the assay with UACC-257 melanoma it was 3.98 µM; with SR leukemia, 19.1 µM; in the assay on K-562 leukemia it was 3.78 µM. Besides, the TGI with SK-MEL-28 melanoma was determined as 3.46 µM; with MOLT-4 leukemia it was 2.67 µM; in the assay on SF-295 CNS it was 4.19 µM; in the assay with SF-268 CNS, 7.94 µM.
